# Measurements as given in patent EP4523686A1, “A SIGMA-1 RECEPTOR POSITIVE MODULATOR FOR ITS USE IN THE PREVENTION AND THE TREATMENT OF A PATHOLOGY” (priority 2023, dated 2025).
# What was measured:
# Wfs1^ΔExon8 mice = assay: Step-through passive avoidance, Wolfram syndrome mouse model; format: in vivo; details: IP 20 min before training, retention 24 h after training
# Text: (§1) The apparatus is a two-compartments (15 × 20 × 15 cm high) box with one illuminated with white polyvinylchloride walls and the other darkened with black polyvinylchloride walls and a grid floor. A guillotine door separates each compartment. A 60 W lamp positioned 40 cm above the apparatus lights up the white compartment during the experiment. Scrambled foot shocks (0.3 mA for 3 s) could be delivered to the grid floor using a shock generator scrambler (Lafayette Instruments, Lafayette, USA). The guillotine door was initially closed during the training session. Each mouse was placed into the white compartment. After 5 s, the door was raised. When the mouse entered the darkened compartment and placed all its paws on the grid floor, the door is closed and the foot shocks delivered for 3 s. The step-through latency (STL-Tg), that is, the latency spent to enter the darkened compartment, and the number of vocalizations were recorded. The retention test was carried out 24 h after training. Each mouse was placed again into the white compartment. After 5 s, the door was raised. The step-through latency (STL-R) was recorded up to 300 s (Meunier et al., 2006, 2013; Villard et al., 2009, 2011). An exclusion criteria was STL-Tg and STL-R < 10 s. Animals showing these readouts are excluded from the calculations. Attrition is routinely < 5% in this test.
# [1] = Summary of the in vivo tests (active dose range); details: dizocilpine-induced amnesia and Aβ25-35 tests
# Text: A characteristic of SIG-1R positive modulators, likely due to the chaperone nature of SIG-1R, is to behave in vivo as agonists (Vavers et al., 2019).
# 5-HT1B receptor = target: T1, 5-HT1B receptor (Homo sapiens, UniProt P28222); assay: CEREP in vitro binding assay (pharmacological profiling)
# T1 construct: CEREP
# [2] = system: Aβ25-35-induced learning impairments in mice; assay: Spontaneous alternation in the Y-maze, Aβ25-35 model of Alzheimer's disease; format: in vivo; details: 0.3-3 mg/kg IP, all doses, single administration on day 1, test on day 8
# Method: (§2) Amyloid-β[25-35] peptide (Aβ25-35) was from Eurogentec (Angers, France). It was solubilized in distilled water at 3 mg/ml and stored at -20°C until use. Before injection, the peptide was incubated at 37°C for 4 days, allowing oligomerization. Control injection was performed with vehicle solution (distilled water), and intracerebroventricularly (ICV) injections were done as described previously (Maurice et al., 1996, 2019).
# The Y-maze is made of grey polyvinylchloride. Each arm is 40 cm long, 13 cm high, 3 cm wide at the bottom, 10 cm wide at the top, and converging at an equal angle. Each mouse was placed at the end of one arm and allowed to move freely through the maze during an 8 min session. The series of arm entries, including possible returns into the same arm, were checked visually. An alternation is defined as entries into all three arms on consecutive occasions. The number of maximum alternations is therefore the total number of arm entries minus two and the percentage of alternation was calculated as (actual alternations / maximum alternations) × 100 (Maurice et al., 1996; Meunier et al., 2006, 2013). Exclusion criteria are locomotion < 10 or percentage of alternation < 25% or > 90%. Animals showing these readouts are excluded from the calculations. Attrition is routinely < 5% in this test. […]
# [3] = system: Aβ25-35-induced learning impairments in mice; assay: Step-through passive avoidance, Aβ25-35 model of Alzheimer's disease; format: in vivo; details: 0.3-3 mg/kg IP, single administration on day 1
# Method: as §2
# as §1, with “When the mouse entered the darkened compartment and placed all its paws on the grid floor, the door is closed and the foot shocks delivered for 3 s.” left out, “The retention test was carried out 24 h after training. Each mouse was placed again into the white compartment. After 5 s, the door was raised.” left out, “An exclusion criteria was STL-Tg and STL-R < 10 s.” left out, “Attrition is routinely < 5% in this test.” left out
# CB2 receptors = target: T2, CB2 receptors (Homo sapiens, UniProt P34972); assay: CEREP in vitro binding assay (pharmacological profiling); details: at micromolar concentrations; range given jointly for CB2, Kv, 5-HT3
# T2 construct: CEREP
# Method: (§3) Table 1 represents pharmacological profiling of convolamine which was tested at […] and 1 µM in in vitro binding assays designed with appropriate reference compounds in duplicates at CEREP facility.
# 5-HT3 receptor = target: T3, 5-HT3 receptor (Homo sapiens, UniProt P46098); assay: as above
# T3 construct: CEREP
# T3 sequence (P46098 24-478): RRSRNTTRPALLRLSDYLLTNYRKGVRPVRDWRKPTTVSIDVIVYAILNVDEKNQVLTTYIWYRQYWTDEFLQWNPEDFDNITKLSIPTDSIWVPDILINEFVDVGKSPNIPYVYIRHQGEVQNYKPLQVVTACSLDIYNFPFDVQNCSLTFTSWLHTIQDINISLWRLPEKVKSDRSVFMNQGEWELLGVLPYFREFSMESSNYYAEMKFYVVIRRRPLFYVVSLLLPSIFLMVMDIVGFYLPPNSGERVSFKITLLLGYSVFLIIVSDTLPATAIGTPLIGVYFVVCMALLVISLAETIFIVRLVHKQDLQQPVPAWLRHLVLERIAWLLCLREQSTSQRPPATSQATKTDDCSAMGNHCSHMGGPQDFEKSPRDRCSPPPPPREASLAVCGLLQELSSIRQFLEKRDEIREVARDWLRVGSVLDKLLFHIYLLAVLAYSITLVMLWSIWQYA
# Method: as §3
# [4] = system: panel of 47 receptors and ionophores; assay: CEREP screen on a panel of 47 receptors and binding sites; details: all targets except CB2 receptors, Kv channels, 5-HT3 and 5-HT1B receptors
# Method: as §3
# Male Swiss mice = assay: Open field activity test (anxiolytic effect) and observation of animals; format: in vivo
# Method: Drug administration: Route: intraperitoneal (IP), Method: by injection. The drug was administered under a volume calculated according to the individual body weight of each mouse (5 ml/kg), Frequency: once before the behavioral procedure, Treatment length: once, Timing: 30 minutes before behavioral procedure.
# Health of animals was checked daily: general aspect of animals, activity, acute or delayed mortality. Weight was monitored the day of experiment.
# The day of the test, animals were tested for general locomotor activity in the open field (OF) activity test for 10 min. The open field is made of opaque white plexiglass. The arena is composed of a large square box (50cm × 50cm × 50cm). Animal movements were followed by an overhead camera placed above the apparatus. Each mouse was placed in the center of the arena and allowed to move freely through the arena during its session. The locomotor activity was assessed by counting the total distance traveled measured in centimeters (cm) for the whole session time. The time spent in center area, and the number of defecations were also assessed.
# T1 sequence (P28222 whole entry): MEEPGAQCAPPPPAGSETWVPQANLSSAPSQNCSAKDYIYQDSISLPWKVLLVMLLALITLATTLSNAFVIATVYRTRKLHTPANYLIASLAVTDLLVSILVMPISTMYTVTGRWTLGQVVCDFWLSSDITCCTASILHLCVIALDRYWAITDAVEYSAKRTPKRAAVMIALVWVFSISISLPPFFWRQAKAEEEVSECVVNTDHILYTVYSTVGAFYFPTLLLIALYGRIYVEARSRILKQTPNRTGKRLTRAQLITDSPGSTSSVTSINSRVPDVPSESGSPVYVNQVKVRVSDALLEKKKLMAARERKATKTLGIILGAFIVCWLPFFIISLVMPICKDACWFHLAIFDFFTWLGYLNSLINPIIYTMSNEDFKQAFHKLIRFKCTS
# T2 sequence (P34972 whole entry): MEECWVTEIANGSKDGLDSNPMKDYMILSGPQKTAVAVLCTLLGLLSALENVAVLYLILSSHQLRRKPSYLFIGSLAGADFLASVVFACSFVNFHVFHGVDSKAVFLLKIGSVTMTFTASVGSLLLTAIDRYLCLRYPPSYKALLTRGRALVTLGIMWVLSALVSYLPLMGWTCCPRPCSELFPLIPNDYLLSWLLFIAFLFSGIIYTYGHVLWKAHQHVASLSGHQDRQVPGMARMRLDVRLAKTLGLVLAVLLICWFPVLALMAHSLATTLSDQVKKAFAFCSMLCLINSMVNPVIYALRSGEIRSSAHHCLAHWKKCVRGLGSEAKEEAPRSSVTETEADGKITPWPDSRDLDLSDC
smiles,measurement,setting,value
"COc1ccc(C(=O)OC2CC3CCC(C2)N3C)cc1OC (stereo not shown) [Convolamine, (8-methyl-8-azabicyclo[3.2.1]octan-3-yl) 3,4-dimethoxybenzoate]",step-through latency deficit during retention (in words),Wfs1^ΔExon8 mice,attenuated the deficit
same,active dose,[1],0.3 to 3 mg/kg
same,stimulation of specific binding,5-HT1B receptor,30-40%
same,inhibition at 0.1 µM,"5-HT1B receptor; 0.1 µM, duplicates, negative = stimulation of binding",-33%
same,inhibition at 1 µM,"5-HT1B receptor; 1 µM, duplicates, negative = stimulation of binding",-38.6%
same,Aβ25-35-induced deficit in spontaneous alternation (in words),[2],significantly attenuated
same,Aβ25-35-induced deficit in the passive avoidance test (in words),[3],not effective
same,inhibitions of the selective radiotracer,CB2 receptors,20-60%
same,inhibition at 0.1 µM,"5-HT3 receptor; 0.1 µM, duplicates",16.2%
same,inhibition at 1 µM,"5-HT3 receptor; 1 µM, duplicates",61.7%
same,inhibition of binding on the 5-HT3 receptor (in words),5-HT3 receptor; at 1 µM,partial inhibition
same,inhibitions of the selective radiotracer,"5-HT3 receptor; at micromolar concentrations, range given jointly for CB2, Kv, 5-HT3",20-60%
same,activity on the panel of 47 receptors and ionophores (in words),[4],inactive
same,percentage of locomotion in center of the arena (in words),Male Swiss mice; IP 30 minutes before the test,increase
same,time spent in the center of the arena (in words),"Male Swiss mice; IP 30 minutes before the test, compared to the vehicle-treated group",significant and bell-shaped increase
same,mortality and adverse effect (in words),"Male Swiss mice; single IP injection, daily health check",No mortality nor adverse effect
